{
  "source": "patent US7101878B1",
  "about": "(Agouron Pharmaceuticals, Inc., priority 1998, dated 2006)",
  "key": {"[1]": {"molecular_target": "T1, hGnRH receptor (Homo sapiens, UniProt P30968)", "T1 construct": "expressed in transfected cells; host or cells: HEK 293 (hGnRH-R/293, from Dr. Stuart Sealfon)", "T1 sequence (P30968 1-328)": "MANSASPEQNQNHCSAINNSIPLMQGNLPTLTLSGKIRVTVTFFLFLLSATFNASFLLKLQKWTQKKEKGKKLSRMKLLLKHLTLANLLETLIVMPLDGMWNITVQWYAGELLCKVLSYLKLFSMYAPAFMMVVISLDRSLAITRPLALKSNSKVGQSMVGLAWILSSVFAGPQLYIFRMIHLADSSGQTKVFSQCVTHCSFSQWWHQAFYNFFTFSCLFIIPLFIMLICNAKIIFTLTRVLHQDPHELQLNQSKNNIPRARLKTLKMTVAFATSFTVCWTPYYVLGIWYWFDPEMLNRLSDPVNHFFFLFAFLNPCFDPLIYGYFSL", "assay": "Total inositol phosphates measurement, 293 cells containing the hGnRH receptor", "format": "cell-based", "details": "for GnRH functional: no species or readout annotated", "description": "To assess the activity of the compounds as agonists or antagonists, an assay measuring accumulation of total inositol phosphates was employed. 293 cells containing the hGnRH receptor were plated onto 24-well plates (approximately 200,000 cells/well) using DMEM media. […] The medium was aspirated and the cells rinsed with serum-free DMEM. The medium was aspirated and the cells were then treated with test compounds or vehicle for 30 minutes at 37° C. […] The media was replaced with ice-cold 10 mM formic acid, which stopped the reaction and also served to extract cellular lipids. Inositol phosphates were separated by ion-exchange chromatography on Dowex columns, which were washed with 2.5 mL of 10 mM myoinositol and 10 mM formic acid. The columns were then washed with 5 mL of 60 mM sodium formate and […], and total inositol phosphates were eluted with 5 mL 1M ammonium formate, 0.1 M formic acid. The column eluates were added to liquid scintillation vials containing 15 ml of scintillation cocktail and were counted by liquid scintillation counting.\nThis cell line was provided by Dr. Stuart Sealfon, Mount Sinai Medical School New York, N.Y. These cells were grown in DMEM supplemented with 0.2 g/L G418 100 U/ml penicillin/streptomycin and 10% FBS. Both GGH3 and hGnRH-R/293 cells were utilized for both for both total inositol phosphate measurement and for microphysiometry assessment of compound efficacy."}, "[2]": {"molecular_target": "T2, NPY Y1 (Homo sapiens, UniProt P25929)", "T2 sequence (P25929 1-384)": "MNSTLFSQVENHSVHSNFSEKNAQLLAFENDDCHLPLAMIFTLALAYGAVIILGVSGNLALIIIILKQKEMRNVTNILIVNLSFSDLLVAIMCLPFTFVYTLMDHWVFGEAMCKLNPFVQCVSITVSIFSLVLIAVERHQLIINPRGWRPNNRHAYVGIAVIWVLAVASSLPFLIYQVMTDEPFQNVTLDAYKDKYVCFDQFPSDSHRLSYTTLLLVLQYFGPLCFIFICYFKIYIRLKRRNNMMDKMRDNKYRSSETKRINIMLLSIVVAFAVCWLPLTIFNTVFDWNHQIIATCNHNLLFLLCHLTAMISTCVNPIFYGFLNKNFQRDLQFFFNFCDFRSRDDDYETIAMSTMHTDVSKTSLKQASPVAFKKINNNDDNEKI", "assay": "Selectivity: NPY Y1"}, "[3]": {"molecular_target": "Glucagon (Homo sapiens, UniProt P47871)", "sequence (P47871 26-477)": "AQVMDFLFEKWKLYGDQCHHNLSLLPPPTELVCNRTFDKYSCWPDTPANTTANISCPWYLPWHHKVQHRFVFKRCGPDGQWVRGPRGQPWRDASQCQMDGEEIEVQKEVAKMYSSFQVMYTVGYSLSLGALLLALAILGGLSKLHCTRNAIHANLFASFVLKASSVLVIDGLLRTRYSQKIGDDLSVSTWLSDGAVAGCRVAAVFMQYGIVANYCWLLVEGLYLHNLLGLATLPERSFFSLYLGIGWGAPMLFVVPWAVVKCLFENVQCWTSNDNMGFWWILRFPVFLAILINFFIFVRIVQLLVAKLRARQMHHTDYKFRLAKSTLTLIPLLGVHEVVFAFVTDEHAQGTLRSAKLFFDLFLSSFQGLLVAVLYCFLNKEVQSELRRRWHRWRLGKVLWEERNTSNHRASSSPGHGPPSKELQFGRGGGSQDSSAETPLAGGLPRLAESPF", "assay": "Selectivity: Glucagon"}, "[4]": {"molecular_target": "T3, ILRA (CXCR-1) (Homo sapiens, UniProt P25024)", "T3 sequence (P25024 1-350)": "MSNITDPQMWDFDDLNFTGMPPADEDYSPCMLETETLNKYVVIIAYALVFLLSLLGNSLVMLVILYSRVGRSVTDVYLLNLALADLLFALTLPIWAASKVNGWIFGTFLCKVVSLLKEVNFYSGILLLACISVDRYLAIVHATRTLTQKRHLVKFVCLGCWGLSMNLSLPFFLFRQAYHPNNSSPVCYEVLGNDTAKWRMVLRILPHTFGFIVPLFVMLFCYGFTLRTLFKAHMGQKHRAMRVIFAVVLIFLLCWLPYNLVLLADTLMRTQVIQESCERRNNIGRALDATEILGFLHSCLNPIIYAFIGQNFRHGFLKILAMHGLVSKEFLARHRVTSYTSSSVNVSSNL", "assay": "Selectivity: ILRA (CXCR-1) / IL8"}},
  "note": "Read-outs that look alike come from different tables or passages of the source. Where a SMILES comes first, the peptide text is derived from it. [ ]: non-standard residue; d: D form. The star is where a group is joined. dPhe(4-Cl) = N[C@H](Cc1ccc(Cl)cc1)C(=O)O; d2Nal = N[C@H](Cc1ccc2ccccc2c1)C(=O)O; Lys(iPr) = CC(C)NCCCC[C@H](N)C(=O)O; d3Pal = N[C@H](Cc1cccnc1)C(=O)O; Nicotinoyl = O=C(c1cccnc1)*",
  "data": [
    {"smiles": "COc1cc(OC)c(NC(=O)c2ccc(Cc3cc(C(C)(C)C)ccc3C)o2)c(OC)c1", "note": "[Compound 200]", "values": [
      {"measurement": "GnRH functional", "setting": "[1]", "value": "Antag- onist"}
    ]},
    {"smiles": "Cc1cc2c(cc1Cc1ccc(C(=O)NCc3cccc(CNc4ccnc(NC[C@@H]5CCCO5)n4)c3)o1)C(C)(C)CCC2(C)C", "note": "[Compound 136]", "values": [
      {"measurement": "GnRH functional", "setting": "[1]", "value": "Antag- onist"}
    ]},
    {"smiles": "Cc1cc2c(cc1Cc1ccc(C(=O)NC[C@H]3CC[C@H](CNC(=N)N)CC3)o1)C(C)(C)CCC2(C)C", "note": "[Compound 10]", "values": [
      {"measurement": "IC50", "setting": "[2]", "value": 9.7, "unit": "µM"},
      {"measurement": "IC50", "setting": "[3]", "value": 6.6, "unit": "µM"},
      {"measurement": "Kb", "setting": "[1]", "value": 0.095, "unit": "µM"},
      {"measurement": "IC50", "setting": "[4]", "value": 6.4, "unit": "µM"}
    ]},
    {"smiles": "Cc1cc2c(cc1Cc1ccc(C(=O)NCC3CCCC(CNc4nccc(NCC5CCCO5)n4)C3)o1)C(C)(C)CCC2(C)C", "note": "(stereo not shown) [Compound 11]", "values": [
      {"measurement": "IC50", "setting": "[2]", "value": 2.55, "unit": "µM"},
      {"measurement": "IC50", "setting": "[3]", "value": 3.2, "unit": "µM"},
      {"measurement": "IC50", "setting": "[4]", "value": "> 10", "unit": "µM"}
    ]},
    {"smiles": "Cc1cc2c(cc1Cc1ccc(C(=O)NC[C@H]3CC[C@H](C(=O)O)CC3)o1)C(C)(C)CCC2(C)C", "note": "[Compound 12]", "values": [
      {"measurement": "IC50", "setting": "[2]", "value": "> 10", "unit": "µM"},
      {"measurement": "IC50", "setting": "[3]", "value": 10, "unit": "µM"},
      {"measurement": "Kb", "setting": "[1]", "value": 0.17, "unit": "µM"},
      {"measurement": "IC50", "setting": "[4]", "value": "> 10", "unit": "µM"}
    ]},
    {"smiles": "COc1cccc(OC)c1NC(=O)c1ccc(Cc2cc3c(cc2C)C(C)(C)CCC3(C)C)o1", "note": "[Compound 20]", "values": [
      {"measurement": "IC50", "setting": "[2]", "value": "> 10", "unit": "µM"},
      {"measurement": "Ki", "setting": "[2]", "value": "> 10", "unit": "µM"},
      {"measurement": "IC50", "setting": "[3]", "value": 6.7, "unit": "µM"},
      {"measurement": "Ki", "setting": "[3]", "value": 6.7, "unit": "µM"},
      {"measurement": "IC50", "setting": "[4]", "value": "> 10", "unit": "µM"},
      {"measurement": "Ki", "setting": "[4]", "value": "> 10", "unit": "µM"}
    ]},
    {"smiles": "Cc1cnc(CNC(=O)c2ccc(Cc3cc4c(cc3C)C(C)(C)CCC4(C)C)o2)cn1", "note": "[Compound 13]", "values": [
      {"measurement": "IC50", "setting": "[2]", "value": "> 10", "unit": "µM"},
      {"measurement": "IC50", "setting": "[3]", "value": 7.9, "unit": "µM"},
      {"measurement": "Kb", "setting": "[1]", "value": 0.085, "unit": "µM"},
      {"measurement": "IC50", "setting": "[4]", "value": "> 10", "unit": "µM"}
    ]},
    {"smiles": "COc1cc(OC)c(NC(=O)c2ccc(Cc3cc4c(cc3C)CCCC4(C)C)o2)c(OC)c1", "note": "[Compound 183]", "values": [
      {"measurement": "GnRH functional", "setting": "[1]", "value": "Antag- onist"}
    ]},
    {"smiles": "CC(=O)N[C@H](Cc1ccc2ccccc2c1)C(=O)N[C@H](Cc1ccc(Cl)cc1)C(=O)N[C@H](Cc1cccnc1)C(=O)N[C@@H](CO)C(=O)N[C@@H](CCCCNC(=O)c1cccnc1)C(=O)N[C@H](CCCCNC(=O)c1cccnc1)C(=O)N[C@@H](CC(C)C)C(=O)N[C@@H](CCCCNC(C)C)C(=O)N1CCC[C@H]1C(=O)N[C@H](C)C(N)=O", "note": "[Antide, reference compound] (Ac-[d2Nal][dPhe(4-Cl)][d3Pal]SK(Nicotinoyl)[dK](Nicotinoyl)L[Lys(iPr)]P[dA]-NH2)", "values": [
      {"measurement": "stimulation of total [3H]inositol phosphates by compound alone", "setting": "[1]; compound alone, no GnRH", "value": "Neither compound alone stimulated an increase"},
      {"measurement": "inhibition of GnRH-stimulated total inositol phosphate accumulation", "setting": "[1]; half-maximal concentration of GnRH (1 nM)", "value": "able to inhibit the stimulation"}
    ]},
    {"smiles": "Cc1cc2c(cc1Cc1ccc(C(=O)NCc3nc4ccccc4[nH]3)o1)C(C)(C)CCC2(C)C", "note": "[Compound 48]", "values": [
      {"measurement": "IC50", "setting": "[2]", "value": "> 10", "unit": "µM"},
      {"measurement": "IC50", "setting": "[3]", "value": 6.3, "unit": "µM"},
      {"measurement": "GnRH functional", "setting": "[1]", "value": "Antag- onist"},
      {"measurement": "IC50", "setting": "[4]", "value": "> 10", "unit": "µM"}
    ]},
    {"smiles": "COc1cc(OC)c(NC(=O)c2ccc(Cc3cc4c(cc3C)C(C)(C)CCC4(C)C)o2)c(OC)c1C#N", "note": "[Compound 177]", "values": [
      {"measurement": "GnRH functional", "setting": "[1]", "value": "Antag- onist"}
    ]},
    {"smiles": "COc1cc(OC)c(NC(=O)c2ccc(Cc3cc4c(cc3C)C(C)(C)CCC4(C)C)o2)c(OC)c1", "note": "[Compound 134]", "values": [
      {"measurement": "Kb", "setting": "[1]; human, PI (inositol phosphates)", "value": 0.013, "unit": "µM"},
      {"measurement": "GnRH functional", "setting": "[1]", "value": "Antag- onist"}
    ]},
    {"smiles": "COc1cc(OC)c(NC(=O)c2ccc(Cc3cc4c(cc3OC)C(C)(C)CCC4(C)C)o2)c(OC)c1", "note": "[Compound 169]", "values": [
      {"measurement": "GnRH functional", "setting": "[1]", "value": "Antag- onist"}
    ]}
  ]
}
